Measurements published in patent publication US10603298B2, “Succinate dehydrogenase inhibitors (SDHi's)” (Medical Research Council, priority 2014, dated 2020).

Tests used:
[1] = administered orally; cited from earlier work
[2] = system: adult primary rat cardiomyocytes; assay: ROS production (DHE oxidation) in adult primary cardiomyocytes during in situ IR; format: cell-based; conditions: 40 min ischaemia then reoxygenation, 4 mM in ischaemic buffer
Experimental: FIG. 13: Tracking cardiomyocytes ROS levels in primary cardiomyocytes during in situ IR. Primary rat cardiomyocytes were subjected to 40 min ischaemia and reoxygenation with ROS levels tracked throughout the experiment by ratiometric measurement of dihydroethidium (DHE) oxidation. […] Representative traces of each condition are shown. The highlighted window indicates the period of the experiment expanded in detail in FIG. 3.a.
Male Sprague-Dawley rats (300-370 g) were terminally anaesthetised via IP injections of 200 mg/kg sodium pentobarbitone and 330 U/kg heparin. Hearts were excised and retrograde perfused on a Langendorff-perfusion system with 13 mL/min oxygenated KH buffer at 37° C. Cells were isolated by collagenase digestion using standard methods^41. […]
Cells were imaged within 36 hours of plating. […] Simulated ischaemia was achieved by replacing the buffer with a pre-gassed, hypoxic recording buffer simulating ischaemia (as above but lacking glucose and containing 10 mM sodium lactate, 14.8 mM KCl; pH 6.4) and by covering the heated stage with a transparent, gas-impermeant lid, forming a small chamber into which argon was forced to maintain hypoxia. pO2 was routinely measured as <2.0 mm Hg during simulated ischaemia. […]
ROS production was estimated by oxidation of DHE. […] All measured cell parameters were analysed with Fiji image processing software.

[3] = system: succinate accumulation in the ischaemic myocardium; assay: Succinate accumulation in the ischaemic myocardium in vivo (LC-MS); conditions: i.v. infusion in vivo, mouse; 30 min ischaemia
Experimental: For the in vivo heart IR model an open-chest, in situ heart model was used^31,32. Male mice (8-10 weeks; Charles River Laboratories, UK) were anaesthetised with sodium pentobarbital (70 mg/kg intraperitoneally (i.p.)), intubated endotracheally and ventilated with 3 cm H2O positive-end expiratory pressure. Adequacy of anaesthesia was monitored using corneal and withdrawal reflexes. Ventilation frequency was kept at 110 breaths per minute with tidal volume between 125-150 μL. A thoracotomy was performed and the heart exposed by stripping the pericardium. A prominent branch of the left anterior descending coronary artery (LAD) was surrounded by a 7-0 Prolene suture that was then passed through a small plastic tube. Ischaemia was induced by tightening the tubing against the heart surface. To assess metabolites during IR in vivo, mice were divided into three groups: 30 min ischaemia, 30 min ischaemia plus 5 min reperfusion and 30 min sham-operation in which the suture was placed but the LAD was not occluded. At the end of each protocol tissue was removed from the at risk and peripheral areas of the heart, selected visually by comparing white versus red tissue, and snap-frozen in liquid nitrogen. Sham-operated tissue was removed from the presumed risk zone. Infarct size was assessed after 30 min of ischaemia followed by 120 min reperfusion using 2% triphenyltetrazolium chloride staining and is expressed as a percentage of the risk zone^33. […] For the LC separation, column A was Sequant Zic-Hilic (150 mm×4.6 mm, internal diameter 3.5 μm) with a guard column (20 mm×2.1 mm 3.5 μm) from HiChrom, Reading, UK. […] (150 mm×2.1 mm i.d. 3.5 μm) with guard column (20 mm×2.1 mm i.d. […]) from HiChrom, Reading, UK. […] Spectra were analysed using both targeted and untargeted approaches. For the targeted approach spectra were analysed using XCalibur Qual Browser and XCalibur Quan Browser softwares (Thermo Scientific) by referencing to an internal library of compounds. […] The arrays of spectra were then statistically analysed using the functions explore.data and univariate of the R package mum a^40.

COC(=O)CC(=O)OC [dimethyl malonate]
LD50 [1]: approximately 5 gms per kilogram | ROS production / DHE oxidation upon reperfusion [2]: reduced DHE oxidation upon reperfusion | succinate accumulation in the ischaemic myocardium [3]: strikingly decreased succinate accumulation
